Assay results: ChEMBL document CHEMBL1127911, “Synthesis of sulphur heterocycles as hepatoprotectants : part I” (1994)

Assays:
Assay type in all cases: functional
Rattus norvegicus [1] = test: Tested for hepatoprotective activity against thioacetamide-induced hepatic damage in rat at 6 mg/kg, expressed as % protection afforded in ALP levels
Rattus norvegicus [2] = test: % protection of glutamate pyruvate transaminase level, against thioacetamide-induced hepatic damage in rats, at 6 mg/Kg peroral dose
Rattus norvegicus [3] = test: Tested for hepatoprotective activity against thioacetamide-induced hepatic damage in rat at 6 mg/kg, expressed as % protection afforded in GIDH levels
Rattus norvegicus [4] = test: % protection measured by glutamate oxaloacetate transaminase level, against thioacetamide-induced hepatic damage in rats, at 6 mg/Kg peroral dose
Rattus norvegicus [5] = test: Tested for hepatoprotective activity against thioacetamide-induced hepatic damage in rat at 6 mg/kg, expressed as % protection afforded in ACP levels

Molecule | Protection (Rattus norvegicus [1]) | Protection (Rattus norvegicus [2]) | Protection (Rattus norvegicus [3]) | Protection (Rattus norvegicus [4]) | Protection (Rattus norvegicus [5])
CCOC(=O)C(C#N)=C1SCCS1 | 11% | 73% | 46% | 74% | 35%
COC(=O)C(C(C)=O)=C1SCCS1 | 0% | 0% | 0% | 7% | 9%
SILYMARIN | 47% | 47.2% | 39.8% | 50.1% | 43.6%
CCN(CC)C(=S)SC(C(=O)c1ccc(Cl)cc1)=C1SCCS1 | 0% | 0% | 5% | 46% | 27%
CCOC(=O)C(C(=O)c1ccccc1)=C1SCCCS1 | 0% | 45% | 23% | 35% | 7%
N#CC(C(=O)c1ccc(Cl)cc1)=C1SCCS1 | 0% | 0% | 0% | 0% | 0%
CC(=O)C(C(C)=O)=C1SCCCS1 | 67% | 0% | 0% | 27% | 0%
COC(=O)C(C(C)=O)=C1SCCCS1 | 14% | 0% | 68% | 66% | 0%
CCOC(=O)C(C(=O)OCC)=C1SCCS1 | 0% | 0% | 2% | 0% | 39%
N#Cc1c(-c2ccccc2)cc(S)sc1=N | 30% | 35% | 47% | 41% | 47%
CCOC(=O)C(C#N)=C1SCCCS1 | 76% | 59% | 0% | 84% | 0%
CCOC(=O)C(C(=O)c1ccccc1)=C1SCCS1 | 0% | 0% | 0% | 0% | 29%
CC(C)OC(=O)C(C(=O)OC(C)C)=C1SCCS1 [ISOPROTHIOLANE] | 0% | 77% | 0% | 92% | 0%
CC(=O)C(C(C)=O)=C1SCCS1 | 0% | 40% | 8% | 67% | 0%
O=C(c1ccc(Cl)cc1)c1sc(=S)sc1SCc1ccccc1 | 3% | 39% | 15% | 80% | 4%
N#CC(C(=O)c1ccccc1)=C1SCCCS1 | 0% | 0% | 0% | 0% | 0%
CCN(CC)C(=S)SC(C(=O)c1ccc(Br)cc1)=C1SCCCS1 | 0% | 0% | 0% | 38% | 20%
N#CC(C(=O)c1ccc(Cl)cc1)=C1SCCCS1 | 0% | 0% | 0% | 63% | 0%
O=C(C(C(=O)c1ccccc1)=C1SCCS1)c1ccccc1 | 34% | 0% | 0% | 0% | 8%
N#CC(C(=O)c1ccccc1)=C1SCCS1 | 31% | 0% | 0% | 0% | 0%
CCN(CC)C(=S)SC(C(=O)c1ccc(C)cc1)=C1SCCS1 | 0% | 0% | 93% | 56% | 70%
N#Cc1c(SCCS)n[nH]c1N | 0% | 0% | 0% | 0% | 9%
CCN(CC)C(=S)SC(C(=O)c1ccc(Cl)cc1)=C1SCCCS1 | 37% | 0% | 26% | 85% | 6%
